Where two headings read alike, the source gives them in different places.
Assays:
[1] = test system: 08073 T cell hybridoma co-incubated with HLA-DR2b-transfected L466 cells; test: blocking of MBP 85-99 induced IL-2 secretion by high-affinity ligands for DR2b; type: cell-based, mouse; conditions: 1 μg/ml MBP 85-99, 10 μg/ml peptide, 24 hours; FIG. 1
Description: L466 cells and 08073 cells, which were transfected with HLA-DR2b, were co-incubated in the presence of 1 μg/ml MBP 85-99 and 10 μg/ml of various HLA-DR2b peptides; “kein Komp.”=no peptide according to the invention in the batch. After 24 hours the supernatant was collected and the amount of IL-2 present in the supernatant was measured in a mouse-specific IL-2-ELISA.
L466 cells and 08073 cells that were transfected with HLA-DR2b were co-incubated in the presence of 1 μg/ml MBP 85-99 and 10 μg/ml of the HuPb28-variants. After 24 hours the supernatant was collected and the amount of IL-2 present in the supernatant was measured using a mouse-specific IL-2-ELISA.
A T cell hybridoma (08073), which expresses the T cell receptor that is specific for MBP 85-99, which is presented by HLA-DR2b, was provided. After stimulation with MBP 85-99, presented by HLA-DR2b-transfected L466 cells, the 08073 cells secreted significant amounts of IL-2. 5×10^4 08073 cells were co-incubated for 24 hours with 5×10^4 HLA-DR2b-transfected L466 cells in RPMI medium (Invitrogen, Pailey, United Kingdom)/2% FCS (PAA, Linz, Austria)/100 U/ml penicillin, 100 μg/ml streptomycin, 2 mM glutamine (all from Invitrogen) in the presence of 1 μg/ml […] with or without high-affinity peptides (10 μg/ml). The amounts of IL-2 that were secreted in the supernatant were detected using a mouse-IL-2-specific ELISA (BD Biosciences Pharmingen, San Diego, Calif., United States of America).

[2] = target: T1, HLA-DR2b molecules (Homo sapiens, UniProt P01903+P01911); test: competitive ELISA (dissociation-enhanced lanthanide fluoroimmunoassay) with biotinylated CLIP 97-120 as tracer on purified DR2b molecules; type: binding
T1 construct: made in house; host or cells: L cells co-transfected with HLA-DRA and HLA-DRB1*1501
Description: DR2b molecules were purified from L cells that had been co-transfected with HLA-DRA and HLA-DRB1*1501, by affinity chromatography using the HLA-DR-specific L243 antibody, as described in Weissert et al. (2001), MHC class II-regulated central nervous system autoaggression and T cell responses in peripheral lymphoid tissues are dissociated in myelin oligodendrocyte glycoprotein-induced experimental autoimmune encephalomyelitits, J. Immunol. 166, 7588-7599. The above publication is incorporated into the present application by reference. The binding assays were performed with a competitive ELISA based on a dissociation-enhanced lanthanide fluoroimmunoassay (Wallac, Turku, Finland). For the competitive ELISA, a 50 nM solution of DR2b molecules was incubated for 48 hours at 37° C. with 50 nM biotinylated CLIP 97-120 in the presence of 250 nM acetylated nonapeptide amide sublibrary or with various concentrations of competitor peptides ranging from 1 nM to 100 μM. The IC50 of a peptide was defined as the concentration of peptide that was required for a 50% inhibition of the binding of the tracer peptide. […]

[3] = test system: HLA-DR2b-transgenic mice; test: MOG 35-55-induced EAE, co-immunization experiment; type: in vivo, mouse
Description: DR2b mice were immunized with the MOG 35-55 peptide in CFA (n=8) or co-immunized with MOG 35-55 and the HuPb11 peptide (SEQ ID No. 17) (n=8) or MOG 35-55 and HuPb28 peptide (SEQ ID No. 9) (n=9). Pertussis toxin (PTX) was administered i.p. on days 0 and 2. The mice were measured daily for EAE and weighed.
The following classifications were used: 0, no disease; 1, weakness or paralysis of the tail; 2, weakness of the hind legs; 3, paralysis of the hind legs; 4, paralysis of the front and hind legs; 5, moribund or death caused by disease.

[4] = acetylated nonapeptide amides, 48 hours at 37° C., 50 nM DR2b, 50 nM biotinylated CLIP 97-120, read-out: IC50 for binding to HLA-DR2b molecules

Substance | IL-2 secretion after stimulation of 08073 cells with MBP 85-99 [1] | IC50 [2, 4] [nM] | further results
Ac-DIYWYSSWP-NH2 [HuPb32, DIYWYSSWP] | significantly reduce IL-2 secretion | < 1 | 
Ac-FILIYSNLF-NH2 [HuPb29, FILIYSNLF] |  | 2 | 
Ac-GPPERLEFR-NH2 [HuPb19, GPPERLEFR] | did not show any effect | > 100000 | 
Ac-KGESGFRDR-NH2 [HuPb17, KGESGFRDR] | did not show any effect |  | IC50 [2]: > 100000 nM
Ac-LILWYSSWL-NH2 [HuPb24, LILWYSSWL] |  | 2 | 
Ac-LILWYSSWP-NH2 [HuPb26, LILWYSSWP] |  | 1 | 
Ac-LILYYYYYL-NH2 [HuPb23, LILYYYYYL] |  |  | affinity for HLA-DR2b in words [2]: moderate affinity
Ac-LIYWYSSWL-NH2 [HuPb22, LIYWYSSWL] |  | 2 | 
Ac-LLYWYSSWP-NH2 [HuPb27, LLYWYSSWP] | only a slight reduction in IL-2 secretion | < 1 | 
Ac-MIDWYSSWP-NH2 [HuPb34, MIDWYSSWP] |  | 1 | 
Ac-MIYWYNSWL-NH2 [HuPb31, MIYWYNSWL] | significantly reduce IL-2 secretion | < 1 | 
Ac-MIYWYSNWL-NH2 [HuPb30, MIYWYSNWL] | only a slight reduction in IL-2 secretion | < 1 | 
Ac-MIYWYSSWD-NH2 [HuPb33, MIYWYSSWD] |  | 1 | 
Ac-MIYWYSSWI-NH2 [HuPb21, MIYWYSSWI] |  | 1 | 
Ac-MIYWYSSWL-NH2 [HuPb20, MIYWYSSWL] |  | 1 | 
Ac-MLIYYSSYL-NH2 [HuPb28, MLIYYSSYL] | significantly reduce IL-2 secretion | < 1 | clinical EAE symptoms ([3]; co-administration of 200 μg peptide with 300 μg MOG 35-55 in CFA at immunization): reduced the clinical EAE symptoms; EAE sum value ([3]; co-immunized with MOG 35-55 and peptide, n=9, p<0.05, FIG. 3): reduction in the sum value
Ac-PYEAQELHE-NH2 [HuPb14, PYEAQELHE] |  | > 100000 | 
Ac-WGLPEHLER-NH2 [HuPb11, WGLPEHLER] |  | > 100000 | 

Source: patent US8557959B2, “Allele and isotope-specific intervention on MHC class II molecules associated with autoimmune diseases by means of peptides” (Merck Serono S.A., priority 2007, dated 2013)
